The text below walks through data of ChEMBL document CHEMBL1667745, “Synthesis and antibacterial evaluation of novel clarithromycin derivatives with C-4″ elongated arylalkyl groups against macrolide-resistant strains” (2011).

SMILES strings stand for the structures. Converted amounts (≈) assume the structure as drawn.

What is called MIC is the smallest concentration in the dilution series that meets the test's criterion for growth inhibition.

Holding throughout (assay type): functional
For assay [1], the system named is Streptococcus pneumoniae. In words: Antimicrobial activity against erythromycin-susceptible Streptococcus pneumoniae ATCC 49619 by broth microdilution method. On the technique in general: Dilution methods test growth across graded concentrations, often in twofold steps.
For assay [2], the system named is Streptococcus pneumoniae. The assay can be described thus: Antimicrobial activity against erythromycin-resistant Streptococcus pneumoniae AB11 expressing the erm and mef gene by broth microdilution method.
In assay [3] the test system is Staphylococcus aureus. The assay can be described thus: Antimicrobial activity against penicillin-susceptible Staphylococcus aureus P1 by broth microdilution method.
In assay [4] the test system is Streptococcus pyogenes. The assay can be described thus: Antimicrobial activity against erythromycin-resistant Streptococcus pyogenes R2 by broth microdilution method.
Assay [5] relates to Streptococcus pneumoniae. In words: Antimicrobial activity against erythromycin-resistant Streptococcus pneumoniae B1 expressing the erm gene by broth microdilution method.
Assay [6] has as its system Streptococcus pneumoniae. In words: Antimicrobial activity against erythromycin-resistant Streptococcus pneumoniae A22072 expressing the mef gene by broth microdilution method.
Assay [7] relates to Staphylococcus aureus. In words: Antimicrobial activity against erythromycin-susceptible Staphylococcus aureus ATCC 25923 by broth microdilution method.
For assay [8], the system named is Streptococcus pyogenes. In words: Antimicrobial activity against erythromycin-susceptible Streptococcus pyogenes S2 by broth microdilution method.

For `CC[C@H]1OC(=O)[C@H](C)[C@@H](O[C@H]2C[C@@](C)(OC)[C@@H](OC(=O)NCc3ccccc3)[C@H](C)O2)[C@H](C)[C@@H](O[C@@H]2O[C@H](C)C[C@H](N(C)C)[C@H]2O)[C@](C)(OC)C[C@@H](C)C(=O)[C@H](C)[C@@H](O)[C@]1(C)O`, the MIC against Streptococcus pneumoniae [1] stood at 0.25 µg/mL (≈ 0.284 µM); against Streptococcus pneumoniae [2], 8 µg/mL (≈ 9.08 µM); against Staphylococcus aureus [3], 1 µg/mL (≈ 1.13 µM); against Streptococcus pyogenes [4], 16 µg/mL (≈ 18.2 µM); in the assay with Streptococcus pneumoniae [5], 4 µg/mL (≈ 4.54 µM); against Streptococcus pneumoniae [6] it was 0.25 µg/mL (≈ 0.284 µM). For the same molecule, the MIC in the assay on Staphylococcus aureus [7] was 0.25 µg/mL (≈ 0.284 µM); in the assay on Streptococcus pyogenes [8], 0.12 µg/mL (≈ 0.136 µM).
As to `CC[C@H]1OC(=O)[C@H](C)[C@@H](O[C@H]2C[C@@](C)(OC)[C@@H](OC(=O)NCc3ccc(F)cc3)[C@H](C)O2)[C@H](C)[C@@H](O[C@@H]2O[C@H](C)C[C@H](N(C)C)[C@H]2O)[C@](C)(OC)C[C@@H](C)C(=O)[C@H](C)[C@@H](O)[C@]1(C)O`, the MIC came out at 0.06 µg/mL (≈ 0.0667 µM) against Streptococcus pneumoniae [1]; 8 µg/mL (≈ 8.9 µM) against Streptococcus pneumoniae [2]; 2 µg/mL (≈ 2.22 µM) with Staphylococcus aureus [3]; 0.5 µg/mL (≈ 0.556 µM) in the assay with Streptococcus pyogenes [4]; 4 µg/mL (≈ 4.45 µM) with Streptococcus pneumoniae [5]; 0.5 µg/mL (≈ 0.556 µM) in the assay on Streptococcus pneumoniae [6]. Also, the results for the minimal inhibitory concentration (MIC) against Staphylococcus aureus [7] and in the assay with Streptococcus pyogenes [8] were 0.12 µg/mL (≈ 0.133 µM) and 0.03 µg/mL (≈ 0.0334 µM), respectively.
Turning to `CC[C@H]1OC(=O)[C@H](C)[C@@H](O[C@H]2C[C@@](C)(OC)[C@@H](OC(=O)NCc3ccc(OC)cc3)[C@H](C)O2)[C@H](C)[C@@H](O[C@@H]2O[C@H](C)C[C@H](N(C)C)[C@H]2O)[C@](C)(OC)C[C@@H](C)C(=O)[C@H](C)[C@@H](O)[C@]1(C)O`, the MIC with Streptococcus pneumoniae [1] turned out to be 0.03 µg/mL (≈ 0.0329 µM); in the assay with Streptococcus pneumoniae [2], 32 µg/mL (≈ 35.1 µM); in the assay on Staphylococcus aureus [3] it was 8 µg/mL (≈ 8.78 µM); in the assay on Streptococcus pyogenes [4], 0.12 µg/mL (≈ 0.132 µM); with Streptococcus pneumoniae [5], 16 µg/mL (≈ 17.6 µM); with Streptococcus pneumoniae [6], 0.25 µg/mL (≈ 0.274 µM). In addition, the MIC in the assay with Staphylococcus aureus [7] was 0.12 µg/mL (≈ 0.132 µM); against Streptococcus pyogenes [8], 0.03 µg/mL (≈ 0.0329 µM).
As for `CC[C@H]1OC(=O)[C@H](C)[C@@H](O[C@H]2C[C@@](C)(OC)[C@@H](OC(=O)NCCc3ccccc3)[C@H](C)O2)[C@H](C)[C@@H](O[C@@H]2O[C@H](C)C[C@H](N(C)C)[C@H]2O)[C@](C)(OC)C[C@@H](C)C(=O)[C@H](C)[C@@H](O)[C@]1(C)O`, the MIC against Streptococcus pneumoniae [1] was determined as 0.03 µg/mL (≈ 0.0335 µM); against Streptococcus pneumoniae [2] it was 64 µg/mL (≈ 71.5 µM); against Staphylococcus aureus [3], 0.06 µg/mL (≈ 0.067 µM); with Streptococcus pyogenes [4], 0.25 µg/mL (≈ 0.279 µM); against Streptococcus pneumoniae [5], 16 µg/mL (≈ 17.9 µM); against Streptococcus pneumoniae [6], 1 µg/mL (≈ 1.12 µM). The results for the minimum inhibitory concentration (MIC) with Staphylococcus aureus [7] and with Streptococcus pyogenes [8] were 0.12 µg/mL (≈ 0.134 µM) and 0.03 µg/mL (≈ 0.0335 µM), respectively.
In the case of `C=CCNC(=O)O[C@H]1[C@H](C)O[C@@H](O[C@H]2[C@H](C)[C@@H](O[C@@H]3O[C@H](C)C[C@H](N(C)C)[C@H]3O)[C@](C)(OC)C[C@@H](C)C(=O)[C@H](C)[C@@H](O)[C@](C)(O)[C@@H](CC)OC(=O)[C@@H]2C)C[C@@]1(C)OC`, the minimal inhibitory concentration (MIC) with Streptococcus pneumoniae [1] was found to be 0.25 µg/mL (≈ 0.301 µM); against Staphylococcus aureus [3], 32 µg/mL (≈ 38.5 µM); in the assay on Staphylococcus aureus [7] it was 0.25 µg/mL (≈ 0.301 µM); against Streptococcus pyogenes [8], 0.03 µg/mL (≈ 0.0361 µM).
`C=CCNC(=O)CCCNC(=O)O[C@H]1[C@H](C)O[C@@H](O[C@H]2[C@H](C)[C@@H](O[C@@H]3O[C@H](C)C[C@H](N(C)C)[C@H]3O)[C@](C)(OC)C[C@@H](C)C(=O)[C@H](C)[C@@H](O)[C@](C)(O)[C@@H](CC)OC(=O)[C@@H]2C)C[C@@]1(C)OC`: the minimum inhibitory concentration (MIC) in the assay on Streptococcus pneumoniae [1] turned out to be 0.03 µg/mL (≈ 0.0327 µM); against Staphylococcus aureus [3], 8 µg/mL (≈ 8.73 µM); against Staphylococcus aureus [7], 0.25 µg/mL (≈ 0.273 µM); with Streptococcus pyogenes [8] it was 0.03 µg/mL (≈ 0.0327 µM).
In the case of `C=CCNC(=O)CCCCCNC(=O)O[C@H]1[C@H](C)O[C@@H](O[C@H]2[C@H](C)[C@@H](O[C@@H]3O[C@H](C)C[C@H](N(C)C)[C@H]3O)[C@](C)(OC)C[C@@H](C)C(=O)[C@H](C)[C@@H](O)[C@](C)(O)[C@@H](CC)OC(=O)[C@@H]2C)C[C@@]1(C)OC`, the MIC against Streptococcus pneumoniae [1] was determined as 0.03 µg/mL (≈ 0.0318 µM); with Staphylococcus aureus [3] it was 16 µg/mL (≈ 16.9 µM); against Staphylococcus aureus [7], 0.25 µg/mL (≈ 0.265 µM); against Streptococcus pyogenes [8], 0.5 µg/mL (≈ 0.53 µM).
